From patent US10328048B2, “Cafestol for treating diabetes” (Aarhus Universitet, priority 2014, dated 2019)
Entries after “also recorded” stand apart in the source; their conditions may differ.

Tests used:
INS-1E cells [1] = test: Chronic (72 hours) insulin secretion from INS-1E cells; format: cell-based, rat; set-up: unit not given here
Method: INS-1E cells were seeded onto 24 well plates and incubated for 72 hours in RPMI 1640 supplemented with cafestol. After 72 hours the buffer was changed to a modified Krebs Ringer buffer and the cells were incubated for 60 min at low (3.3 mM) and high (16.7 mM) glucose. Hereafter the medium was removed for later insulin analysis using a sensitive rat insulin kit from Linco.

INS-1E cells [2] = test: as above; format: cell-based, rat; conditions: low glucose level (FIG. 2)
[3] = healthy ileostomy volunteers, cited from earlier work
INS-1E cells [4] = test: Acute insulin secretion from INS-1E cells; format: cell-based, rat; set-up: Insulin secretion, Mean: unit not given here; conditions: for Insulin secretion, Mean: 16.7 mM glucose, 60 min
Method: INS-1E cells were seeded onto 24 well plates before incubation experiments. At the day of the experiment the buffer was changed to a modified Krebs-Ringer-buffer and the cells were preincubated in the same buffer for 60 min. […]

[5] = oral 1.5 mg/mouse, cited from earlier work
KKAy mice = test: 10 week dietary intervention study in diabetic KKAy mice; format: in vivo; conditions: 10 weeks; for Fasting plasma glucose compared to the control group: in food pellets
Method: (§1) The effects of cafestol were investigated in a 10 week dietary intervention study in a type 2 diabetic animal model. Five weeks old male KKAy mice were randomly assigned to either of three intervention groups (n=12 per group), i.e. 1) Control (no cafestol added), 2) supplementation with 0.382 mg/day of cafestol/kg mice, and 3) supplementation with 1.146 mg/day of cafestol/kg mice. The cafestol was added to food pellets daily. At the beginning of the study (week 0) fasting blood glucose, insulin and lipids (total cholesterol, LDL, HDL and triglycerides) were measured. Every 2nd week fasting blood glucose, body weight and food intake was measured. At the end of the intervention (week 10) fasting blood glucose, insulin, glucagon and lipids (total cholesterol, LDL-cholesterol, HDL-cholesterol) were measured. The pancreas was removed and treated with collagenase and subsequently, the effects on insulin secretory capacity was studied in isolated islets of Langerhans. Furthermore, gene expression levels of key regulatory genes in liver, fat and muscle tissues were measured using RT-PCR.

[6] = test system: isolated islets of Langerhans; test: Insulin secretion experiment with isolated islets of Langerhans from KKAy mice after 10 weeks intervention; format: in vivo
Method: as §1

[7] = test system: Human skeletal muscle cells; test: Acute glucose uptake in human skeletal muscle cell line; format: cell-based; conditions: 100 nM insulin, 15 minutes
Method: Human skeletal muscle cells were seeded in 24 wells, ([…] cells/well) containing 1 mL growth medium (Promocell, Heidelberg, Germany). Once 70-90% confluence was reached, the growth medium was replaced by 1 mL differentiation medium (Promocell, Heidelberg, Germany). This medium was changed every 2nd day for two weeks until multinucleated syncytia was visible in microscope. Cells were washed twice with PBS. 300 μL of an alternatively modified-Krebs Ringer Buffer (containing 0.1% BSA with 0.1 mM glucose, 1.5 μCi deoxy-d-glucose 2-[1,2-3H(M)] (Perkin Elmer, 2740 Skovlunde, Denmark) and 100 nM insulin was put in each well. Five types of solutions were prepared: one with […] cafestol or rosiglitazone (control), a second with a 10^−6 M cafestol, a third with a 10^−10 M cafestol, a fourth with a 10^−12 M cafestol, and a fifth with a 10^-8 M rosiglitazone. Cells were kept on ice while adding medium. After 15 minutes of incubation at 37° C., 5.0% CO2, cells were washed twice with the modified-Krebs Ringer Buffer supplemented with 0.1% BSA and 50 mM glucose, stopping the incubation and glucose uptake. Hereafter, 0.2 mL 0.1 M NaOH was added to each well for a 30 minute room temperature incubation. 0.1 mL was transferred from each well to a 24 well counting plate (Wallac Oy, Turku, Finland). After adding 0.9 mL Hisafe II scintillator (Perkin Elmer, 2740 Skovlunde, Denmark), plates were stored in the dark for 12 hours before counted using a Trilux Micro Beta Counter (Wallac Oy, Turku, Finland). “Counts per minute” is a direct measure of glucose uptake.

With `C[C@@]12CCc3occc3[C@H]1CC[C@@]13C[C@@H](CC[C@H]12)[C@@](O)(CO)C3` [Cafestol] the “Insulin secretion, Mean” value (INS-1E cells [1]; 3.3 mM glucose, 72 hours incubation with cafestol 10^−8 M) was 0.7482, the “Insulin secretion, Mean” value (INS-1E cells [1]; 3.3 mM glucose, 72 hours incubation with cafestol 10^−8 M, listed as cafestol) was “stimulatory effect” and the “Insulin secretion, Mean” value (INS-1E cells [1]; 3.3 mM glucose, 72 hours incubation with cafestol 10^−10 M) was 0.5853. For the same compound, the “Insulin secretion, Mean” value (INS-1E cells [1]; 3.3 mM glucose, 72 hours incubation with cafestol 10^−10 M, listed as cafestol) was “neutral effect”, the “Insulin secretion, Mean” value (INS-1E cells [1]; 3.3 mM glucose, 72 hours incubation with cafestol 10^−12 M) was 0.4999 and the “Insulin secretion, Mean” value (INS-1E cells [1]; 3.3 mM glucose, 72 hours incubation with cafestol 10^−12 M, listed as cafestol) was “significantly decreased”. The “Insulin secretion, Mean” value (INS-1E cells [1]; 16.7 mM glucose, 72 hours incubation with cafestol 10^−8 M) was 1.661, the “Insulin secretion, Mean” value (INS-1E cells [1]; 16.7 mM glucose, 72 hours incubation with cafestol 10^−8 M, listed as cafestol) was “significant increase” and the “Insulin secretion, Mean” value (INS-1E cells [1]; 16.7 mM glucose, 72 hours incubation with cafestol 10^−10 M) was 1.322. The “Insulin secretion, Mean” value (INS-1E cells [1]; 16.7 mM glucose, 72 hours incubation with cafestol 10^−10 M, listed as cafestol) was “significant increase”, the “Insulin secretion, Mean” value (INS-1E cells [1]; 16.7 mM glucose, 72 hours incubation with cafestol 10^−12 M) was 0.9279 and the Glucagonostatic effect (INS-1E cells [2]) was “significant glucagonostatic effect”. The “Absorbed from the gastrointestinal tract” value ([3]; estimated from recovery in ileostomy effluent) was “approximately 70%”, the “Dose recovered in urine” value [3] was “approximately 1%” and the “Insulin secretion, Mean” value (INS-1E cells [4]; cafestol 10^−6 M) was 0.9013. The “Insulin secretion, Mean” value (INS-1E cells [4]; cafestol 10^−8 M) was 0.8682, the “Insulin secretion, Mean” value (INS-1E cells [4]; cafestol 10^−10 M) was 0.8715 and the “Insulin secretion, Mean” value (INS-1E cells [4]; cafestol 10^−12 M) was 0.8261. The “Insulin secretion (change vs glucose alone)” value (INS-1E cells [4]; high glucose, concentrations ranging from 10^−10 M to 10^−6 M) was “significant increase”, the “Parent compound as share of activity present in portal blood” value ([5]; 50 min after administration) was 70% and the “Parent compound as share of total radioactivity present in portal blood” value ([5]; two minutes after dosing) was 50%. The “Fasting plasma glucagon compared to Control” value (KKAy mice; High cafestol group 1.146 mg/day/kg) was “significant decreased”, the “Fasting plasma glucose compared to the control group” value (KKAy mice; high concentration 1.146 mg/day/kg) was “significantly decreased; also recorded: decrease fasting plasma glucose significantly” and the “HOMA-IR compared to control group” value (KKAy mice; high dose of cafestol, p=0.03) was “significantly reduced; also recorded: significant decrease”. The “Fasting plasma glucose compared to the control group” value (KKAy mice; low concentration 0.382 mg/day/kg) was “significantly decreased; also recorded: decrease fasting plasma glucose significantly”, the “HOMA-IR compared to control group” value (KKAy mice; low dose of cafestol) was “tendency to be reduced” and the “Glucose sensitivity of islets (insulin secretion) compared to Control” value ([6]; after 10 weeks intervention with cafestol) was “more glucose sensitive”. For the same compound, the “Insulin stimulation at low glucose concentration” value ([6]; islets after 10 weeks intervention, low glucose) was “not present”, the “Glucose uptake, Counts per minute (± in SEM)” value ([7]; 10^−8 M) was 157.2 ± 2.318 Counts per minute and the “Glucose uptake, Counts per minute (± in SEM)” value ([7]; 10^−8 M, listed as cafestol) was “significantly increased”. For the same compound, the “Glucose uptake, Counts per minute (± in SEM)” value ([7]; 10^−10 M) was 151.0 ± 2.104 Counts per minute and the “Glucose uptake, Counts per minute (± in SEM)” value ([7]; 10^−12 M) was 146.3 ± 1.839 Counts per minute.
